Assay results as given in US20100190688A1, “Tetrapeptide analogs” (priority 2004, published 2010).

Columns and labels:
[1] = target: T1, BIR3-mediated Caspase-9 inhibition (UniProt Q9R0I6); assay: Caspase-9 rescue assay (relief of BIR3-mediated Caspase-9 inhibition); type: biochemical, human Caspase-9; Rat or Chicken BIR3; conditions: average EC50, substrate Ac-LEHD-amc, pH 6.5
T1 construct: Nothing is printed for this assay
Description: Additionally the compounds and compositions can be evaluated for their ability to achieve relief of BIR3-mediated Caspase-9 inhibition by measuring Caspase-9 reactivation. The fluorogenic substrate Ac-LEHD-7-amido-4-methylcoumarin is used in these methods. EC50 values of tested BIR3 inhibitors or Caspase-9 rescuers is calculated from the percentage of Caspase-9 reactivation in the mixtures containing serially diluted concentrations of tested compound. Typically, 10-point curves are generated for such EC50 determination.
Relief of BIR3-mediated Caspase-9 inhibition by BIR3 inhibitors was assayed by measuring Caspase-9 reactivation using the fluorogenic substrate Ac-LEHD-7-amido-4-methylcoumarin. A truncated form of human Caspase-9 that lacks the N-terminal Caspase recruitment domain (EPro-Caspase-9 or p35/p12) was used in the assay. This form of the enzyme has the full catalytic activity and the same substrate specificity as the full-length protein in the Apaf-1/Cytochrome C/dATP/Caspase-9 reconstituted system. Rat or Chicken BIR3 was used in this assay. […] This mixture was incubated for 40 min to allow equilibration at 25° C., and the assay progression was subsequently followed by monitoring the formation of fluorescent 7-amido-4-methylcoumarin over time at 460 nm using an excitation wavelength of 360 nm. […] EC50 values of tested BIR3 inhibitors or Caspase-9 rescuers were calculated from the percentage of Caspase-9 reactivation in the mixtures containing serially diluted concentrations of tested compound.

BIR3 domain of rat XIAP = BIR3 domain of rat XIAP (Rattus norvegicus, UniProt Q9R0I6); assay: Fluorescence polarization assay, binding to BIR3 from rat XIAP
Chain of BIR3 domain of rat XIAP (Q9R0I6 241-355): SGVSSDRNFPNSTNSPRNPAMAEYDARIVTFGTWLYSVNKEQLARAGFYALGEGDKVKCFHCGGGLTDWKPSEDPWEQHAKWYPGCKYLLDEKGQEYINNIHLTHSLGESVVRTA
Description: In fluorescence polarization assays a fluorescent probe is used. The binding affinity of compounds to BIR3 is measured by competitive displacement of a fluorescent probe using fluorescence polarization anisotropy. […] In other embodiments, the probe used is 6-(6-Hydroxy-3-oxo-3H-xanthen-9-yl)-N-(5-(2-methylamino-propionylamino)-6-oxo-6-[4-(1,2,3,4-tetrahydro-naphthalen-1-ylcarbamoyl)-thiazolidin-3-yl]-hexyl)-isophthalamic acid.
The binding affinity of compounds provided herein for rat BIR3 was measured by competitive displacement of a fluorescent probe using fluorescence polarization anisotropy. […] Control conditions were set up on each plate and include free probe 1 alone (5 nM), fully bound probe (5 μM BIR3+5 nM probe 1) and binding buffer blank. The-EC50 of binding was computed from a 4-parameter fit of the measured anisotropies using the SoftMax Pro 4.6 software package (Molecular Dynamics, Sunnyvale, Calif.).
Alternatively, probe 1 was substituted with probe 2: 6-(6-Hydroxy-3-oxo-3H-xanthen-9-yl)-N-{5-(2-methylamino-propionylamino)-6-oxo-6-[4-(1,2,3,4-tetrahydro-naphthalen-1-ylcarbamoyl)-thiazolidin-3-yl]-hexyl}-isophthalamic acid, for rat BIR3 and the concentrations of assay components changed. […] Controls were adjusted accordingly.

Row | Compound | EC50 [1] | EC50 (BIR3 domain of rat XIAP)
1 | CNC(C)C(=O)NC(C(=O)NC(CCC(=O)OCc1ccccc1)C(=O)NC1CCCc2ccccc21)C(C)C (stereo not shown) [4-[3-Methyl-2-(2-methylamino-propionylamino)-butyrylamino]-4-(1,2,3,4-tetrahydro-naphthalen-1-ylcarbamoyl)-butyric acid benzyl ester] | 1000 to 10000 nM | < 1000 nM
2 | CNC(C)C(=O)NC(C(=O)N1CSC(C)(C)C1C(=O)NC1CCCc2ccccc21)C(C)C (stereo not shown) [5,5-Dimethyl-3-[3-methyl-2-(2-methylamino-propionylamino)-butyryl]-thiazolidine-4-carboxylic acid (1,2,3,4-tetrahydro-naphthalen-1-yl)-amide] | < 1000 nM | < 1000 nM
3 | CNC(C)C(=O)NC1CCc2cccc3c2N(C1=O)C(C(=O)NC1CCCc2ccccc21)C3 (stereo not shown) [5-(2-Methylamino-propionylamino)-4-oxo-1,2,4,5,6,7-hexahydro-azepino[3,2,1-hi]indole-2-carboxylic ′acid (1,2,3,4-tetrahydro-naphthalen-1-yl)-amide] | 1000 to 10000 nM | < 1000 nM
4 | CN[C@@H](C)C(=O)N[C@H]1CCCC2CC[C@@H](C(=O)N[C@@H]3CCCc4ccccc43)N2C1=O (stereo partly shown) [6-(2-Methylamino-propionylamino)-5-oxo-octahydro-pyrrolo[1,2-a]azepine-3-carboxylic acid (1,2,3,4-tetrahydro-naphthalen-1-yl)-amide] | < 1000 nM | < 1000 nM
5 | CNC(C)C(=O)NC(C(=O)NC(CCCCNS(=O)(=O)c1ccc(OC)cc1)C(=O)NC1CCCc2ccccc21)C(C)C (stereo not shown) [6-(4-Methoxy-benzenesulfonylamino)-2-[3-methyl-2-(2-methylamino-propionylamino)-butyrylamino]-hexanoic acid (1,2,3,4-tetrahydro-naphthalen-1-yl)-amide] | < 1000 nM | < 1000 nM
6 | CCCCS(=O)(=O)NCCCCC(NC(=O)C(NC(=O)C(C)NC)C(C)C)C(=O)NC1CCCc2ccccc21 (stereo not shown) [6-(Butane-1-sulfonylamino)-2-[3-methyl-2-(2-methylamino-propionylamino)-butyrylamino]-hexanoic acid (1,2,3,4-tetrahydro-naphthalen-1-yl)-amide] | < 1000 nM | < 1000 nM
7 | CNC(C)C(=O)NC(C(=O)NC(CCCCNC(C)=O)C(=O)NC1CCCc2ccccc21)C(C)C (stereo not shown) [6-Acetylamino-2-[3-methyl-2-(2-methylamino-propionylamino)-butyrylamino]-hexanoic acid (1,2,3,4-tetrahydro-naphthalen-1-yl)-amide] | 1000 to 10000 nM | < 1000 nM
8 | CCCCN(CCCC)CCCCC(NC(=O)C(NC(=O)C(C)NC)C(C)C)C(=O)NC1CCCc2ccccc21 (stereo not shown) [6-Dibutylamino-2-[3-methyl-2-(2-methylamino-propionylamino)-butyrylamino]-hexanoic acid (1,2,3,4-tetrahydro-naphthalen-1-yl)-amide] | < 1000 nM | < 1000 nM
9 | CNC(C)C(=O)NC(C(=O)NC(CCCCN(C)C)C(=O)NC1CCCc2ccccc21)C(C)C (stereo not shown) [6-Dimethylamino-2-[3-methyl-2-(2-methylamino-propionylamino)-butyrylamino]-hexanoic acid (1,2,3,4-tetrahydro-naphthalen-1-yl)-amide] | < 1000 nM | < 1000 nM
10 | CNC(C)C(=O)NC(C(=O)NC(CCCCNS(C)(=O)=O)C(=O)NC1CCCc2ccccc21)C(C)C (stereo not shown) [6-Methanesulfonylamino-2-[3-methyl-2-(2-methylamino-propionylamino)-butyrylamino]-hexanoic acid (1,2,3,4-tetrahydro-naphthalen-1-yl)-amide] | < 1000 nM | < 1000 nM
11 | CNC(C)C(=O)NC(C(=O)N1CC2(CC1C(=O)NC1CCCc3ccccc31)SCCS2)C(C)C (stereo not shown) [7-[3-Methyl-2-(2-methylamino-propionylamino)-butyryl]-1,4-dithia-7-aza-spiro[4.4]nonane-8-carboxylic acid (1,2,3,4-tetrahydro-naphthalen-1-yl)-amide] | 1000 to 10000 nM | < 1000 nM
